In ChEMBL document CHEMBL1201862, “PubChem BioAssay data set” (2004):
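48-hour exposure; five concentrations; linearly interpolated endpoints. GI50 marks 50% less growth.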 Activity calls are given as the source filed them. Cut-off read from the data, not from the text of the source: active = GI50 up to about 1.1 µM and inactive = higher.

How the values were obtained:
Experiment in all cases: DTP human tumour cell line panel, 48 h
[1] = tested on: NCI-H23
[2] = tested on: SNB-75
[3] = tested on: SNB-19
[4] = tested on: SF-268
[5] = tested on: LOX IMVI
[6] = tested on: HT-29
[7] = tested on: EKVX
[8] = tested on: T47D
[9] = tested on: UACC-257
[10] = tested on: SK-MEL-2
[11] = tested on: HOP-62
[12] = tested on: PC-3
[13] = tested on: SF-295
[14] = tested on: HL-60
[15] = tested on: MCF7
[16] = tested on: NCI-H522
[17] = tested on: SK-MEL-28
[18] = tested on: MOLT-4
[19] = tested on: OVCAR-5
[20] = tested on: UO-31

Measured: GI50

CCOP(=O)(/C=C/n1cnc2c(=O)n(C(C)=O)c(N)nc21)OCC
inactive: [1] > 100 µM | [2] > 100 µM | [3] > 100 µM | [4] > 100 µM | [5] > 100 µM | [6] > 100 µM | [7] > 100 µM | [8] > 100 µM | [9] > 100 µM | [10] > 100 µM | [11] > 100 µM | [12] > 100 µM | [13] > 100 µM | [14] > 100 µM | [15] > 100 µM | [16] 67.9 µM | [17] > 100 µM | [18] > 100 µM | [19] > 100 µM

CN(C)c1ccc(/C=C/C(=O)CC(=O)/C=C/c2ccc(N(C)C)cc2)cc1
inactive: [2] > 100 µM | [3] > 100 µM | [4] > 100 µM | [5] 15.7 µM | [20] > 100 µM | [6] > 100 µM | [7] > 100 µM | [8] > 100 µM | [10] > 100 µM | [11] > 100 µM | [12] > 100 µM | [13] > 100 µM | [14] > 100 µM | [15] > 100 µM | [16] > 100 µM | [17] > 100 µM | [18] > 100 µM | [19] > 100 µM

O=c1oc2ccc([N+](=O)[O-])cc2c(Nc2ccc3c(c2)Oc2ccccc2O3)c1[N+](=O)[O-]
inactive: [1] 25.1 µM | [2] 40.9 µM | [3] 28.6 µM | [4] 48.1 µM | [5] 31.7 µM | [20] 69.2 µM | [6] 35.2 µM | [7] 31.6 µM | [8] 50.2 µM | [9] 26.2 µM | [10] 21.3 µM | [11] 38.9 µM | [12] 25 µM | [13] 43.6 µM | [14] 21.3 µM | [15] 26.5 µM | [16] 35.5 µM | [17] 39.9 µM | [19] 38 µM

O=C(NC(=S)Nc1ccc(Br)cc1)c1ccc2c(c1)Sc1ccccc1O2
inactive: [1] > 100 µM | [2] 3.04 µM | [3] 39.3 µM | [4] 48.3 µM | [5] > 100 µM | [20] 31.1 µM | [6] > 100 µM | [8] 63.7 µM | [9] > 100 µM | [10] > 100 µM | [11] 79.8 µM | [12] > 100 µM | [13] 54.5 µM | [14] > 100 µM | [15] > 100 µM | [16] > 100 µM | [17] > 100 µM | [18] > 100 µM | [19] > 100 µM

O=C1c2ccccc2C(=O)c2sc(Nc3ccccc3C(F)(F)F)nc21
inactive: [1] 15.7 µM | [2] 15.1 µM | [3] 21.5 µM | [4] 11 µM | [5] 25.1 µM | [20] 12.1 µM | [7] 18.2 µM | [8] 12 µM | [9] 15.6 µM | [10] 11.6 µM | [11] 14 µM | [12] 12.2 µM | [13] 15.6 µM | [14] 3.74 µM | [15] 16.4 µM | [16] 8.15 µM | [17] 16.2 µM | [18] 3.45 µM | [19] 22.4 µM

O=C(O)CCc1nc(-c2ccccc2)c(-c2ccccc2)o1 [OXAPROZIN]
inactive: [1] > 100 µM | [2] > 100 µM | [3] > 100 µM | [5] > 100 µM | [6] > 100 µM | [7] > 100 µM | [8] 74.5 µM | [9] > 100 µM | [10] > 100 µM | [11] > 100 µM | [12] > 100 µM | [13] > 100 µM | [14] > 100 µM | [15] > 100 µM | [16] > 100 µM | [17] > 100 µM | [18] 84.1 µM | [19] > 100 µM
